Experimental data as given in BindingDB's records for patent US12071420 (Hoffmann-La Roche, 2024).

Target: Cannabinoid receptor 2 (Homo sapiens, UniProt P34972)
Experiment: Radioligand Binding Assay
Description: The affinity of the compounds of the invention for cannabinoid CB1 receptors was determined using recommended amounts of membrane preparations (PerkinElmer) of human embryonic kidney (HEK) cells expressing the human CNR1 or CNR2 receptors in conjunction with 1.5 or 2.6 nM [3H]-CP-55,940 (Perkin Elmer) as radioligand, respectively. Binding was performed in binding buffer (50 mM Tris, 5 mM MgCl2, 2.5 mM EDTA, and 0.5% (wt/vol) fatty acid free BSA, pH 7.4 for CB1 receptor and 50 mM Tris, 5 mM MgCl2, 2.5 mM EGTA, and 0.1% (wt/vol) fatty acid free BSA, pH 7.4 for CB2 receptor) in a total volume of 0.2 ml for 1 h at 30° C. shaking. The reaction was terminated by rapid filtration through microfiltration plates coated with 0.5% polyethylenimine (UniFilter GF/B filter plate; Packard). Bound radioactivity was analyzed for Ki using nonlinear regression analysis (Activity Base, ID Business Solution, Limited), with the Kd values for [3H]CP55,940 determined from saturation experiments. The compounds of formula (I) show an excellent affinity for the CB2 receptor.

Cannabinoid receptor 2, sequence (P34972 whole entry): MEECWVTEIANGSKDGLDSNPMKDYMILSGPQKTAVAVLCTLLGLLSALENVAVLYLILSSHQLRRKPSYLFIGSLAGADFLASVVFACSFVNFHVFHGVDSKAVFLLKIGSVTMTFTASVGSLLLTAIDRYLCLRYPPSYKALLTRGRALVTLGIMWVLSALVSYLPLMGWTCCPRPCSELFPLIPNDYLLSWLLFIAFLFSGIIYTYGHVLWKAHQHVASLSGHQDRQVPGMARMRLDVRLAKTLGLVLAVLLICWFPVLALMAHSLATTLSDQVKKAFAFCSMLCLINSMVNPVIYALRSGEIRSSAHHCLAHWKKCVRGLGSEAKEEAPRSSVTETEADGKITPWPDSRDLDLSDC

Q: `COC1CN(c2ccc(C(=O)N[C@H](COCF)CC(C)C)nc2OCC2CC2)C1` [US12071420, Example 25] was tested. Which Ki did it give?
A: 14 nM
